Results as given in ChEMBL document CHEMBL4610096, “Anti-inflammatory neo-Clerodane Diterpenoids from Ajuga pantantha” (J Nat Prod, 2020).
Calls of active or inactive are those of the source. No cut-off for these calls is given here.

Assays:
BV-2 [1] = assay: Cytotoxicity against mouse BV2 cells assessed as reduction in cell viability; assay type: cell-based
BV-2 [2] = assay: Antiinflammatory activity in mouse BV2 cells assessed as reduction in LPS-induced nitric oxide production by griess assay; assay type: functional, cell-based
BV-2 [3] = assay: Antiinflammatory activity in mouse BV2 cells assessed as reduction in LPS-induced iNOS expression at 10 to 100 uM preincubated for 30 mins followed by LPS stimulation and measured after 24 hrs by Western blot analysis; assay type: functional, cell-based
BV-2 [4] = assay: Antiinflammatory activity in mouse BV2 cells assessed as reduction in LPS-induced COX2 expression at 10 to 100 uM preincubated for 30 mins followed by LPS stimulation and measured after 24 hrs by Western blot analysis; assay type: functional, cell-based

Row | SMILES | Activity (BV-2 [1]) | IC50 (BV-2 [2]) | Activity (BV-2 [3]) | Activity (BV-2 [4])
1 | COC(=O)C/C(C=O)=C\C[C@@]1(C)[C@H](C)C[C@H](OC(C)=O)[C@]2(COC(C)=O)[C@@H]1[C@H](O)CC[C@]21CO1 | Non-Toxic | > 100 µM | – | –
2 | CC[C@H](C)C(=O)O[C@@H](C[C@@]1(C)[C@H](C)C[C@H](O)[C@]2(C)[C@@H]1CCC[C@H]2C(=O)OC)C1=CC(=O)OC1 | Non-Toxic | 45 µM | – | –
3 | C/C=C(\C)C(=O)OC[C@@]12[C@H](CCC[C@]1(O)CCl)[C@@](C)(CCC1=CC(=O)OC1)[C@H](C)C[C@@H]2O | Non-Toxic | 20.2 µM | Active | Active
4 | C/C=C(\C)C(=O)O[C@@H](C[C@@]1(C)[C@H](C)C[C@H](O)[C@]2(C)[C@@H]1CCC[C@H]2C(=O)OC)C1=CC(=O)OC1 | Non-Toxic | 25.8 µM | Active | Active
5 | CSC(=N)N | – | 2.4 µM | – | –
